ChEMBL document CHEMBL4828769, “Discovery of AS-0141, a Potent and Selective Inhibitor of CDC7 Kinase for the Treatment of Solid Cancers” (J Med Chem, 2021)
Calls of active or inactive are those of the source. No cut-off for these calls is given here.

Key:
[1] = target: T1, Cell division cycle 7-related protein kinase (Homo sapiens, UniProt O00311); assay: Inhibition of CDC7 in human COLO 205 cells assessed as reduction in phosphorylation of MCM2 at 1 uM preincubated for 48 hrs followed by compound washout measured after 24 hrs by Western blot analysis; assay type: cell-based
Target sequence in this assay (O00311 whole entry, looked up): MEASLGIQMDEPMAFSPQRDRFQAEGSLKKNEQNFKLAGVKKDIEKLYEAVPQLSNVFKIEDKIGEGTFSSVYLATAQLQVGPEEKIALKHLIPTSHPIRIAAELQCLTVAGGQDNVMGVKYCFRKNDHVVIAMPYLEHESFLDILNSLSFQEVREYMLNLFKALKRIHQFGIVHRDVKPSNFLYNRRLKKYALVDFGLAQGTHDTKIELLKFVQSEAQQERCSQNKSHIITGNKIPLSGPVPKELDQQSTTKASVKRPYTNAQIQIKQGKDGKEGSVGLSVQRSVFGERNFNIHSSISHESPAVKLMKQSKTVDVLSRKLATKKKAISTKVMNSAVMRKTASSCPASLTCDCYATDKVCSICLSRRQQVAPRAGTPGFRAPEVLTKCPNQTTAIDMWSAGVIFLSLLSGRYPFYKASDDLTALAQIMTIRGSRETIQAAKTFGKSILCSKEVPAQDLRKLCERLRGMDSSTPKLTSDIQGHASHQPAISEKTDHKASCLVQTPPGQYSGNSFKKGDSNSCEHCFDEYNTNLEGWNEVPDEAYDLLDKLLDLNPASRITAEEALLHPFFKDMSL

[2] = target: T1, Cell division cycle 7-related protein kinase; assay: Reversible inhibition of human CDC7 assessed as off-rate preincubated for 50 mins followed by substrate addition in presence of ATP by rapid dilution assay
Target sequence in this assay (O00311 whole entry, looked up): as above

[3] = Inhibition of human CDC7/ASK using FITC-labelled MCM2 substrate in presence of 5 uM of ATP
[4] = Inhibition of human CDC7/ASK using FITC-labelled MCM2 substrate in presence of 1 mM of ATP
[5] = Inhibition of human CDC7/ASK using FITC-labelled MCM2 substrate preincubated for 30 mins followed by substrate addition and measured after 5 hrs in presence of 1 mM of ATP
[6] = target: T1, Cell division cycle 7-related protein kinase; assay: Inhibition of CDC7 in human COLO205 cells assessed as reduction in MCM2 phosphorylation at S53 residue at 0.1 uM incubated for 48 hrs by Western blot analysis relative to control; assay type: cell-based; settings: COLO 205
Target sequence in this assay (O00311 whole entry, looked up): as above

COLO 205 = assay: Induction of cell cycle arrest in human COLO205 cells assessed as accumulation of cells at sub-G1 phase at 1 uM incubated for 48 hrs by propidium iodide staining based flow cytometry analysis; assay type: functional
[7] = Metabolic stability in human liver microsomes assessed as parent compound remaining after 30 mins; assay type: ADME, Microsome; settings: liver microsomes, read-out: Stability
[8] = Metabolic stability in rat liver microsomes assessed as parent compound remaining after 30 mins; assay type: ADME, Microsome; settings: read-out: Stability
[9] = Metabolic stability in dog liver microsomes assessed as parent compound remaining after 30 mins; assay type: ADME, Canis lupus familiaris, Microsome; settings: read-out: Stability
[10] = Apparent permeability across apical to basolateral side in human Caco-2 cells; assay type: ADME, cell-based
[11] = Protein binding in human plasma assessed as unbound fraction; assay type: ADME, cell-free
[12] = target: T2, Glycogen synthase kinase-3 alpha (Homo sapiens, UniProt P49840); assay: Inhibition of GSK3alpha (unknown origin) at 0.1 uM in presence of 1 mM ATP relative to control
Target sequence in this assay (P49840 2-483 limits assumed): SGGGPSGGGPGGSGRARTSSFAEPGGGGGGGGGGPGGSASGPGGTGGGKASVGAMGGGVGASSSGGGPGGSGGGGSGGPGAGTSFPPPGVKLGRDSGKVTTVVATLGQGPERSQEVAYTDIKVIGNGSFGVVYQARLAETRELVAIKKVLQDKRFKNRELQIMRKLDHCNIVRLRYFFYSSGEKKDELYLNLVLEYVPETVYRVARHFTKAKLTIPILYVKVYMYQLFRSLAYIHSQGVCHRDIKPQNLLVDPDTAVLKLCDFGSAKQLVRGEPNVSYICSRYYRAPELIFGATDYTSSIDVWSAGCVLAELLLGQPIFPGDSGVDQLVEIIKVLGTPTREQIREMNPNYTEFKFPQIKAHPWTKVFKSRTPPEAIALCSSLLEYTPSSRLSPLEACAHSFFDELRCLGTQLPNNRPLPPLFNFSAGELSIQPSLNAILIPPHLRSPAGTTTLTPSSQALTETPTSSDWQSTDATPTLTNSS

[13] = target: Dual specificity protein kinase CLK2 (Homo sapiens, UniProt P49760); assay: Inhibition of CLK2 (unknown origin) at 0.1 uM in presence of 1 mM ATP relative to control
Dual specificity protein kinase CLK2, sequence (P49760 whole entry, looked up): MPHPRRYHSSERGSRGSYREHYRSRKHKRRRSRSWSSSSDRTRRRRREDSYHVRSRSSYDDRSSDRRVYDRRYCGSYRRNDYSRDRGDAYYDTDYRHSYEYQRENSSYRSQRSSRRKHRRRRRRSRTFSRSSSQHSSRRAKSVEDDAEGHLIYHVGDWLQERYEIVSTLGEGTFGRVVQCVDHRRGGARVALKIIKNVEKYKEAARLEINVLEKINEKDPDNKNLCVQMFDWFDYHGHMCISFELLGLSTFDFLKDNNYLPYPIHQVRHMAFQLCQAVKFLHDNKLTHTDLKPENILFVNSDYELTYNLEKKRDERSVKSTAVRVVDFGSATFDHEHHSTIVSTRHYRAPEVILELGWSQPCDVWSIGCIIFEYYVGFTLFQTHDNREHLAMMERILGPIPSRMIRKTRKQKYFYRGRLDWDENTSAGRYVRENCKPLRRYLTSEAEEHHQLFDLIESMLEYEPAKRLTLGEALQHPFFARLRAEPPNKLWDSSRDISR

[14] = target: Serine/threonine-protein kinase pim-1 (Homo sapiens, UniProt P11309); assay: Inhibition of PIM1 (unknown origin) in presence of 1 mM ATP without preincubation
Serine/threonine-protein kinase pim-1, sequence (P11309 whole entry): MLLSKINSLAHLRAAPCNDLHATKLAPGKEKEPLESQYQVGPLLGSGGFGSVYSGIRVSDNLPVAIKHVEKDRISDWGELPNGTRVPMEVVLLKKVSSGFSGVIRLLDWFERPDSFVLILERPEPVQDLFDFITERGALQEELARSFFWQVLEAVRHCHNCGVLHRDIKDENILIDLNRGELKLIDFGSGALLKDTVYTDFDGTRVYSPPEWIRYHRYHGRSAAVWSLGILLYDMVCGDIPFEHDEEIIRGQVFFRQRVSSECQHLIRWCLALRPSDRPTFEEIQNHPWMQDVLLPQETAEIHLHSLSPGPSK

Homo sapiens [15] = species on record: Homo sapiens; assay: Selectivity index, ratio of IC50 for PIM1 (unknown origin) in presence of 1 mM ATP without preincubation to IC50 for PIM1 (unknown origin) in presence of 1 mM ATP with preincubation
[16] = target: T3, Dual specificity protein kinase CLK1 (Homo sapiens, UniProt P49759); assay: Inhibition of CLK1 (unknown origin) in presence of 1 mM ATP without preincubation
T3 sequence (P49759 whole entry): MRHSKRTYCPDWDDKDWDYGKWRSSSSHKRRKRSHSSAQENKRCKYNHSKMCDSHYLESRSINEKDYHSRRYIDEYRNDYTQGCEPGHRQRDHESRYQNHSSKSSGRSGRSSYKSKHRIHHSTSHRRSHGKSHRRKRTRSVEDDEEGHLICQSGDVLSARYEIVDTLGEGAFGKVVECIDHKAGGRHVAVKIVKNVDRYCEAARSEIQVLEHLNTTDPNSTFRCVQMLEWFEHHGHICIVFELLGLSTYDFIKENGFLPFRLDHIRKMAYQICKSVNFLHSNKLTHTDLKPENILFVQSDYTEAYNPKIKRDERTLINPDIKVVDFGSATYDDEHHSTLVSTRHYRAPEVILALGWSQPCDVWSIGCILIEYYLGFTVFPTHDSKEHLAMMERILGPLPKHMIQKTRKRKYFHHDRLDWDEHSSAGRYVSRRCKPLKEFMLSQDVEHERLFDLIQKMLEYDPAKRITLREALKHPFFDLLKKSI

[17] = target: T3, Dual specificity protein kinase CLK1; assay: Inhibition of CLK1 (unknown origin) in presence of 1 mM ATP with preincubation
Homo sapiens [18] = species on record: Homo sapiens; assay: Selectivity index, ratio of IC50 for CLK1 (unknown origin) in presence of 1 mM ATP without preincubation to IC50 for CLK1 (unknown origin) in presence of 1 mM ATP with preincubation
Homo sapiens [19] = species on record: Homo sapiens; assay: Selectivity index, ratio of IC50 for CLK2 (unknown origin) in presence of 1 mM ATP without preincubation to IC50 for CLK2 (unknown origin) in presence of 1 mM ATP with preincubation
[20] = target: T2, Glycogen synthase kinase-3 alpha; assay: Inhibition of GSK3alpha (unknown origin) in presence of 1 mM ATP with preincubation
Target sequence in this assay (P49840 whole entry): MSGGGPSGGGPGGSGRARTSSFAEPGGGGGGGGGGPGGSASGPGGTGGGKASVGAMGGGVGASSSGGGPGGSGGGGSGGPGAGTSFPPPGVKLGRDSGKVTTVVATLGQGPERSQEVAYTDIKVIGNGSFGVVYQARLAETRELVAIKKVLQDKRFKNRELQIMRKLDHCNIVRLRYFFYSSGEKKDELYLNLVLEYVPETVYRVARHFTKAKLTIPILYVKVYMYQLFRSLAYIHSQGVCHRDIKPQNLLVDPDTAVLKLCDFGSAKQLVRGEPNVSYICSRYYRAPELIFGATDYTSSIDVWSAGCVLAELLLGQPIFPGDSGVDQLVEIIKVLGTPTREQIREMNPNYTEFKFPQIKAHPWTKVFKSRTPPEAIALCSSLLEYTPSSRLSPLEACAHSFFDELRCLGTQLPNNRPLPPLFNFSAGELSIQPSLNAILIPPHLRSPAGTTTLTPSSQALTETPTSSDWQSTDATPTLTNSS

[21] = target: T1, Cell division cycle 7-related protein kinase; assay: Inhibition of CDC7 in human SW-620 cells assessed as reduction in phosphorylation of MCM2 at Ser40 residue incubated for 48 hrs by Western blot analysis; assay type: cell-based
[22] = target: T1, Cell division cycle 7-related protein kinase; assay: Inhibition of CDC7 in human SW-620 cells assessed as reduction in phosphorylation of MCM2 at Ser41 residue at 0.03 to 1 uM incubated for 48 hrs by Western blot analysis; assay type: cell-based; settings: dose 0.03-1 µM
Target sequence in this assay (O00311 whole entry, looked up): as the sequence (O00311 whole entry, looked up) above

SW-620 [23] = assay: Induction of apoptosis in human SW-620 cells assessed as increase in cleaved PARP level incubated for 48 hrs by Western blot analysis; assay type: functional, cell-based; settings: dose 0.03-1 µM
[24] = Half life in rat at 2 mg/kg, iv; assay type: ADME, organism-based; settings: in vivo
[25] = Half life in rat at 10 mg/kg, po; assay type: ADME, organism-based; settings: in vivo
[26] = Half life in dog at 2 mg/kg, po; assay type: ADME, organism-based, Canis lupus familiaris; settings: in vivo
[27] = Tmax in rat at 10 mg/kg, po; assay type: ADME, organism-based; settings: in vivo
[28] = Tmax in dog at 2 mg/kg, po; assay type: ADME, organism-based, Canis lupus familiaris; settings: in vivo
[29] = Cmax in mouse at 1 mg/kg, iv; assay type: ADME, organism-based; parameters: route intravenous, dose 1 mg/kg; settings: in vivo
[30] = Cmax in mouse at 10 mg/kg, po; assay type: ADME, organism-based; parameters: route oral, dose 10 mg/kg; settings: in vivo
[31] = Cmax in rat at 2 mg/kg, iv; assay type: ADME, organism-based; parameters: route intravenous, dose 2 mg/kg; settings: in vivo
[32] = Cmax in rat at 10 mg/kg, po; assay type: ADME, organism-based; parameters: route oral, dose 10 mg/kg; settings: in vivo
[33] = Cmax in dog at 1 mg/kg, iv; assay type: ADME, organism-based, Canis lupus familiaris; parameters: route intravenous, dose 1 mg/kg; settings: in vivo
[34] = Cmax in dog at 2 mg/kg, po; assay type: ADME, organism-based, Canis lupus familiaris; parameters: route oral, dose 2 mg/kg; settings: in vivo
[35] = AUC(0 to infinity) in mouse at 1 mg/kg, iv; assay type: ADME, organism-based; parameters: route intravenous, time infinity, dose 1 mg/kg; settings: in vivo
[36] = AUC(0 to infinity) in mouse at 10 mg/kg, po; assay type: ADME, organism-based; parameters: time infinity, route oral, dose 10 mg/kg; settings: in vivo
[37] = AUC(0 to infinity) in dog at 1 mg/kg, iv; assay type: ADME, organism-based, Canis lupus familiaris; parameters: route intravenous, time infinity, dose 1 mg/kg; settings: in vivo
[38] = Volume of distribution in dog at 1 mg/kg, iv; assay type: ADME, organism-based, Canis lupus familiaris; settings: in vivo
[39] = Clearance in mouse at 1 mg/kg, iv; assay type: ADME, organism-based; settings: in vivo
[40] = Clearance in rat at 2 mg/kg, iv; assay type: ADME, organism-based; settings: in vivo
[41] = MRT in rat at 2 mg/kg, iv; assay type: ADME, organism-based; settings: in vivo
[42] = MRT in dog at 1 mg/kg, iv; assay type: ADME, organism-based, Canis lupus familiaris; settings: in vivo
[43] = Oral bioavailability in mouse at 10 mg/kg; assay type: ADME, organism-based; settings: in vivo
[44] = Oral bioavailability in rat at 10 mg/kg; assay type: ADME, organism-based; settings: in vivo
SW-620 [45] = assay: Antitumor activity against human SW-620 cells xenografted in BALB/c nude mouse assessed as tumor growth inhibition at 120 mg/kg, po administered daily for 21 days; assay type: functional; settings: SW-620, po, 504 h, time 21 day, read-out: TGI
SW-620 [46] = assay: Antitumor activity against human SW-620 cells xenografted in BALB/c nude mouse assessed as tumor growth inhibition at 60 mg/kg, po administered as 4 days on and 2 days off schedule for 21 days; assay type: functional; settings: SW-620, po, 504 h, time 21 day, read-out: TGI
[47] = In vivo inhibition of CDC7 in human SW-620 cells xenografted in BALB/c nude mouse assessed as reduction in phosphorylation of MCM2 at Ser53 residue at 120 mg/kg, po measured after 8 hrs; assay type: functional; settings: SW-620, po
[48] = In vivo inhibition of CDC7 in human SW-620 cells xenografted in BALB/c nude mouse assessed as reduction in phosphorylation of MCM2 at Ser53 residue at 120 mg/kg, po measured after 24 hrs; assay type: functional; settings: SW-620, po

In the case of `CCOC(=O)C1=C(NN2CCN(CC(F)(F)F)CC2)O/C(=C\c2c[nH]c3ncccc23)C1=O` [MONZOSERTIB], the inhibition [1] is reported as “Active”, the T1/2 [2] is reported as 3.58 h and the IC50 [3] is reported as 8.2 nM. For the same molecule, the IC50 [4] was 503 nM, the IC50 [5] was 2.4 nM and the inhibition [6] was 100%. The Activity (COLO 205) was 51%, the remaining at 0.5 h [7] was 89% and the remaining at 0.5 h [8] was 34.9%. The remaining at 0.5 h [9] was 81%, the Papp A→B [10] was 24.9 ×10⁻⁶ cm/s and the fraction unbound [11] was 0.088. For the same molecule, the inhibition [12] was greater than 30%, the inhibition [13] was greater than 30% and the IC50 [14] was 30 nM. It also gave a Ratio IC50 (Homo sapiens [15]) of 0.9, an IC50 [16] of 212 nM and an IC50 [17] of 206 nM. It also gave a Ratio IC50 (Homo sapiens [18]) of 1, a Ratio IC50 (Homo sapiens [19]) of 1.2 and an IC50 [20] of 251 nM. The IC50 [21] was 36 nM, the inhibition ([21]; dose 0.03-1 µM) was “Dose-Dependent Effect” and the inhibition [22] was “inactive”. The Activity (SW-620 [23]) was “Dose-Dependent Effect”, the half-life [24] was 181 min and the half-life [25] was 366 min. The half-life [26] was 251 min, the Tmax [27] was 1 h and the Tmax [28] was 2.67 h. The Cmax [29] was 408 ng/mL, the Cmax [30] was 285 ng/mL and the Cmax [31] was 1210 ng/mL. It also gave a Cmax [32] of 426 ng/mL, a Cmax [33] of 298 ng/mL and a Cmax [34] of 96.1 ng/mL. The AUC(0-inf) [35] was 149 ng·h/mL, the AUC(0-inf) [36] was 454 ng·h/mL and the AUC(0-inf) [37] was 1250 ng·h/mL. The Vd [38] was 4.22 L/kg, the clearance [39] was 112 mL/min/kg and the clearance [40] was 37.7 mL/min/kg. It also gave an MRT [41] of 1.45 h, an MRT [42] of 5.26 h and a bioavailability [43] of 30.6%. The bioavailability [44] was 54.4%, the inhibition in vivo at 120 mg/kg (SW-620 [45]) was 88% and the inhibition in vivo at 60 mg/kg (SW-620 [46]) was 83%. The inhibition in vivo at 120 mg/kg [47] was 83% and the inhibition in vivo at 120 mg/kg [48] was 36%.
